Source: US8410152B2 (Max-Planck-Gesellschaft zur Forderung der Wissenschaften e. …, priority 2006, dated 2013)

Experiments:
[1] = biological target: tau construct K19 (Homo sapiens, UniProt P10636); assay: Thioflavine S (ThS) assay for aggregation of tau; format: biochemical; settings: 10 μM tau construct K19, 2.5 μM heparin, ThS fluorescence; for DC50: read-out: DC50; for IC50: over night at 37° C., read-out: ID50 (the source's name)
Method: Thioflavine S (ThS) Assay for aggregation of tau: 10 μM of the tau construct K19 were incubated with compounds in a concentration range from 1 nM up to 200 μM in the presence of 2.5 μM heparin in 50 mM NH4Ac buffer over night at 37° C. After addition of 20 μM ThS the signal was measured at 521 nm (emission) at an excitation wavelength of 440 nm. The results of this assay are presented in the IC50 column and DC50 column of Table 1 below.

[2] = tested on: uninduced N2A cells; format: cell-based; settings: cell death as percent of LDH released into medium vs total LDH, compound 10 μM
Method: Neurotoxicity assay: Neurotoxicity was assessed using an LDH (lactate dehydrogenase) assay kit (Roche, Mannheim, Germany) according to the manufacturer's specifications. In the viability assay the aggregation inhibitor compound was added at a final concentration of 10 μM to uninduced N2A cells. The activity of LDH was measured spectrophotometrically at 492 nm. Cell death was calculated as percent of LDH released into medium, compared to total LDH obtained after total cell lysis.

tau construct K19, sequence (P10636 with tags, fused parts or gaps isoform P10636-2 limits assumed): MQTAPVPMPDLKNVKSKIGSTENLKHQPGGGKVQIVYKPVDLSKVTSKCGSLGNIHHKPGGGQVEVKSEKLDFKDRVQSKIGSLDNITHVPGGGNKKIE

DC50 [1] [µM]	IC50 [1] [µM]	Structure (SMILES)	LDH [2] [%]
31.7	> 200	O=C(NNc1nc(-c2ccc(Br)cc2)cs1)c1ccc2[nH]cnc2c1 [Comp. 43, N′-[4-(4-bromophenyl)-1,3-thiazol-2-yl]-1H-benzimidazole-5-carbohydrazide]	11.5
> 200	59.2	COc1cccc(-c2csc(NNC(=O)c3ccc(Cl)cc3)n2)c1 [Comp. 27, 4-chloro-N′-[4-(3-methoxyphenyl)-1,3-thiazol-2-yl]benzohydrazide]	42.1
53.9	20.5	O=C(NNc1nc(-c2ccc(-c3ccccc3)cc2)cs1)c1ccccc1F [Comp. 74, N′-[4-(1,1′-biphenyl-4-yl)-1,3-thiazol-2-yl]-2-fluorobenzohydrazide]	
0.9	6.9	O=C(NNc1nc(-c2ccc([N+](=O)[O-])cc2)cs1)c1ccc(F)cc1 [Comp. 18, 4-fluoro-N′-[4-(4-nitrophenyl)-1,3-thiazol-2-yl]benzohydrazide]	46.9
88	> 200	O=C(NNc1nc(-c2cc3ccccc3oc2=O)cs1)c1ccc2ccccc2c1 [Comp. 4, N′-(4-(2-Oxo-2H-chromen-3-yl)thiazol-2-yl)-2-naphthohydrazide]	15.7
169	> 200	O=C(NNc1nc(-c2ccc(Br)cc2)cs1)c1ccc2ccccc2c1 [Comp. 3, N′-(4-(4-Bromophenyl)thiazol-2-yl)-2-naphthohydrazide]	4.2
> 200	184	O=C(NNc1nc(-c2ccc(F)cc2)cs1)c1ccc(Cl)cc1 [Comp. 31, 4-chloro-N′-[4-(4-fluorophenyl)-1,3-thiazol-2-yl]benzohydrazide]	56.1
0.4	13.6	O=C(NNc1nc(-c2ccc([N+](=O)[O-])cc2)cs1)c1ccc2ccccc2c1 [Comp. 20, N′-(4-(4-Nitrophenyl)thiazol-2-yl)-2-naphthohydrazide]	18.7
> 200	> 200	O=C(NNc1nc(-c2cc3ccccc3oc2=O)cs1)c1ccc(-c2ccccc2)cc1 [Comp. 47, N′-[4-(2-oxo-2H-chromen-3-yl)-1,3-thiazol-2-yl]-1,1′-biphenyl-4-carbohydrazide]	44.7
30.5	20.4	COc1ccc(-c2csc(NNC(=O)c3ccccc3F)n2)cc1 [Comp. 70, 2-fluoro-N′-[4-(4-methoxyphenyl)-1,3-thiazol-2-yl]benzohydrazide]	
> 200	> 200	O=C(NNc1nc(-c2ccccc2)cs1)c1ccc(F)cc1 [Comp. 34, 4-fluoro-N′-(4-phenyl-1,3-thiazol-2-yl)benzohydrazide]	2.6
> 200	> 200	O=C(CCc1ccccc1)NNc1nc(-c2ccc(Br)cc2)cs1 [Comp. 36, N′-[4-(4-bromophenyl)-1,3-thiazol-2-yl]-3-phenylpropanohydrazide]	3.3
> 200	> 200	COc1cccc(-c2csc(NNC(=O)c3ccncc3)n2)c1 [Comp. 35, N′-[4-(3-methoxyphenyl)-1,3-thiazol-2-yl]isonicotinohydrazide]	3.2
> 200	> 200	O=C(NNc1nc(-c2ccccc2)cs1)c1ccc(-c2ccccc2)cc1 [Comp. 37, N′-(4-phenyl-1,3-thiazol-2-yl)-1,1′-biphenyl-4-carbohydrazide]	3.6
0.7	3.1	O=C(NNc1nc(-c2ccc([N+](=O)[O-])cc2)cs1)c1cccnc1 [Comp. 11, N′-[4-(4-nitrophenyl)-1,3-thiazol-2-yl]nicotinohydrazide]	12.9
127	> 200	O=C(NNc1nc(-c2ccccc2)cs1)c1ccccc1F [Comp. 41, 2-fluoro-N′-(4-phenyl-1,3-thiazol-2-yl)benzohydrazide]	6.5

DC50 [1] [µM]	IC50 [1] [µM]	Structure (SMILES)	LDH [2] [%]
44.6	42.1	O=C(NNc1nc(-c2ccc(N3CCCC3)cc2)cs1)c1ccc(F)nc1 [Comp. 75, 6-fluoro-N′-[4-(4-pyrrolidin-1-ylphenyl)-1,3-thiazol-2-yl]nicotinohydrazide]	12.2
19.4	51.3	COc1ccc(-c2csc(NNC(=O)c3ccccc3)n2)cc1 [Comp. 69, N′-[4-(4-methoxyphenyl)-1,3-thiazol-2-yl]benzohydrazide]	
> 200	> 200	O=C(NNc1nc(-c2ccc(Cl)cc2)cs1)c1ccccc1 [Comp. 71, N′-[4-(4-chlorophenyl)-1,3-thiazol-2-yl]benzohydrazide]	
> 200	> 200	O=C(NNc1nc(-c2ccc(Br)cc2)cs1)c1ccc(-c2ccccc2)cc1 [Comp. 39, N′-[4-(4-bromophenyl)-1,3-thiazol-2-yl]-1,1′-biphenyl-4-carbohydrazide]	4.9
> 200	> 200	CC(C)(C)c1csc(NNC(=O)c2ccc(Cl)cc2)n1 [Comp. 48, N′-(4-tert-butyl-1,3-thiazol-2-yl)-4-chlorobenzohydrazide]	48.1
33.5	10.8	O=C(NNc1nc(-c2ccc([N+](=O)[O-])cc2)cs1)Nc1ccccc1 [Comp. 6]	2.1
> 200	47.2	O=C(NNc1nc(-c2cc3ccccc3oc2=O)cs1)c1ccc(F)cc1 [Comp. 5, 4-Fluoro-N′-(4-(2-oxo-2H-chromen-3-yl)thiazol-2-yl)benzohydrazide]	8.6
> 200	146	O=C(NNc1nc(-c2cccs2)cs1)c1ccc(Cl)cc1 [Comp. 29, 4-chloro-N′-(4-thien-2-yl-1,3-thiazol-2-yl)benzohydrazide]	3.8
> 200	101	O=C(NNc1nc(-c2ccc(Cl)cc2)cs1)c1ccccc1F [Comp. 72, N′-[4-(4-chlorophenyl)-1,3-thiazol-2-yl]-2-fluorobenzohydrazide]	
1.5	5.8	O=C(NNc1nc(-c2ccc(N3CCCC3)cc2)cs1)c1ccc2ccccc2c1 [Comp. 16, N′-[4-(4-pyrrolidin-1-ylphenyl)-1,3-thiazol-2-yl]-2-naphthohydrazide]	15.3
> 200	195	Cc1sc(NNC(=O)c2ccc(F)cc2)nc1-c1ccccc1 [Comp. 32, 4-fluoro-N′-(5-methyl-4-phenyl-1,3-thiazol-2-yl)benzohydrazide]	18.4
16.4	> 200	O=C(NNc1nc(-c2ccccc2)cs1)c1ccc2ccccc2c1 [Comp. 42, N′-(4-phenyl-1,3-thiazol-2-yl)-2-naphthohydrazide]	8.2
> 200	> 200	O=C(NNc1nc2c(s1)Cc1ccccc1-2)c1ccc2c(c1)OCO2 [Comp. 44, N′-8H-indeno[1,2-d][1,3]thiazol-2-yl-1,3-benzodioxole-5-carbohydrazide]	18.8
138	67.6	CN(Nc1nc(-c2ccc([N+](=O)[O-])cc2)cs1)C(=O)c1ccc(-c2ccccc2)cc1 [Comp. 76, N-methyl-N′-[4-(4-nitrophenyl)-1,3-thiazol-2-yl]-1,1′-biphenyl-4-carbohydrazide]	
17.7	10.9	CN(C(=O)c1ccc(-c2ccccc2)cc1)N(C)c1nc(-c2ccc([N+](=O)[O-])cc2)cs1 [Comp. 77, N,N′-dimethyl-N′-[4-(4-nitrophenyl)-1,3-thiazol-2-yl]-1,1′-biphenyl-4-carbohydrazide]	
38.5	17.5	O=C(NNc1nc(-c2cccc([N+](=O)[O-])c2)cs1)c1ccccc1F [Comp. 73, 2-fluoro-N′-[4-(3-nitrophenyl)-1,3-thiazol-2-yl]benzohydrazide]	

Structure (SMILES)	DC50 [1] [µM]	IC50 [1] [µM]	LDH [2] [%]
O=C(NNc1nc(-c2ccccc2)cs1)c1cccnc1 [Comp. 1, N′-(4-Phenylthiazol-2-yl)nicotinohydrazide]	1.7	17	56.8
O=C(NNc1nc(-c2ccccc2)cs1)c1ccc2c(c1)OCO2 [Comp. 45, N′-(4-phenyl-1,3-thiazol-2-yl)-1,3-benzodioxole-5-carbohydrazide]	> 200	> 200	22.6
O=C(NNc1nc(-c2ccccc2)cs1)c1ccc(Cl)cc1	> 200	> 200	34.3
[N-]=[N+]=Nc1ccc(-c2csc(NNC(=O)c3ccc(F)cc3)n2)cc1 [Comp. 14, N′-[4-(4-azidophenyl)-1,3-thiazol-2-yl]-4-fluorobenzohydrazide]	1.3	4.7	42.5
O=C(NNc1nc(-c2ccc(Br)cc2)cs1)c1ccco1 [Comp. 28, N′-[4-(4-bromophenyl)-1,3-thiazol-2-yl]-2-furohydrazide]	2	60.9	3.8
O=C(NNc1nc(-c2ccc(Br)cc2)cs1)c1ccc2c(c1)OCO2 [Comp. 38, N′-[4-(4-bromophenyl)-1,3-thiazol-2-yl]-1,3-benzodioxole-5-carbohydrazide]	> 200	> 200	4.6
